In publication PMC11576293, “New series of 4,6-diaryl pyrimidines: facile synthesis and antiproliferative activity as dual EGFR/VEGFR-2 inhibitors” (Frontiers in Chemistry, 2024):

Columns and labels:
Assay in all cases: NCI-60 single-dose screen
Assay type in all cases: cell-based
786-0 = settings: Homo sapiens, single dose 10 µM, '-' = no inhibition, read-out: % Growth Inhibition
Outline: (§1)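 The NCI Developmental Therapeutics Program exposed each of 60 cancer cell lines, drawn from leukemia, lung, colon, CNS, melanoma, ovarian, renal, prostate and breast origins, to one concentration of compound (10 μM).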

A498 = settings: Homo sapiens, single dose 10 µM, '-' = no inhibition, read-out: % Growth Inhibition
Outline: as §1

A549/ATCC = settings: Homo sapiens, single dose 10 µM, '-' = no inhibition, read-out: % Growth Inhibition
Outline: as §1

ACHN 1 = settings: Homo sapiens, single dose 10 µM, '-' = no inhibition, read-out: % Growth Inhibition
Outline: as §1

BT-549 = settings: Homo sapiens, single dose 10 µM, '-' = no inhibition, read-out: % Growth Inhibition
Outline: as §1

CCRF-CEM = settings: Homo sapiens, single dose 10 µM, '-' = no inhibition, read-out: % Growth Inhibition
Outline: as §1

COLO 205 = settings: Homo sapiens, single dose 10 µM, '-' = no inhibition, read-out: % Growth Inhibition
Outline: as §1

EKVX = settings: Homo sapiens, single dose 10 µM, '-' = no inhibition, read-out: % Growth Inhibition
Outline: as §1

HCC-2998 = settings: Homo sapiens, single dose 10 µM, '-' = no inhibition, read-out: % Growth Inhibition
Outline: as §1

HCT-15 = settings: Homo sapiens, single dose 10 µM, '-' = no inhibition, read-out: % Growth Inhibition
Outline: as §1

HL-60(TB) = settings: Homo sapiens, single dose 10 µM, '-' = no inhibition, read-out: % Growth Inhibition
HOP-62 = settings: Homo sapiens, single dose 10 µM, '-' = no inhibition, read-out: % Growth Inhibition
Outline: as §1

HT29 = settings: Homo sapiens, HT-29, single dose 10 µM, '-' = no inhibition, read-out: % Growth Inhibition
Outline: as §1

IGROV1 = settings: Homo sapiens, IGROV-1, single dose 10 µM, '-' = no inhibition, read-out: % Growth Inhibition
Outline: as §1

K-562 = settings: Homo sapiens, K562, single dose 10 µM, '-' = no inhibition, read-out: % Growth Inhibition
Outline: as §1

LOX IMVI = settings: Homo sapiens, single dose 10 µM, '-' = no inhibition, read-out: % Growth Inhibition
Outline: as §1

M14 = settings: Homo sapiens, single dose 10 µM, '-' = no inhibition, read-out: % Growth Inhibition
Outline: as §1

MALME-3M = settings: Homo sapiens, single dose 10 µM, '-' = no inhibition, read-out: % Growth Inhibition
Outline: as §1

MCF7 = settings: Homo sapiens, single dose 10 µM, '-' = no inhibition, read-out: % Growth Inhibition
Outline: as §1

MDA-MB-468 = settings: Homo sapiens, single dose 10 µM, '-' = no inhibition, read-out: % Growth Inhibition
Outline: as §1

MDA-MB231/ATCC = settings: Homo sapiens, MDA-MB-231, single dose 10 µM, '-' = no inhibition, read-out: % Growth Inhibition
Outline: as §1

NCI-H23 = settings: Homo sapiens, single dose 10 µM, '-' = no inhibition, read-out: % Growth Inhibition
Outline: as §1

NCI-H322M = settings: Homo sapiens, single dose 10 µM, '-' = no inhibition, read-out: % Growth Inhibition
Outline: as §1

NCI-H460 = settings: Homo sapiens, single dose 10 µM, '-' = no inhibition, read-out: % Growth Inhibition
Outline: as §1

NCI-H522 = settings: Homo sapiens, single dose 10 µM, '-' = no inhibition, read-out: % Growth Inhibition
Outline: as §1

NCI/ADR-RES = settings: Homo sapiens, single dose 10 µM, '-' = no inhibition, read-out: % Growth Inhibition
Outline: as §1

OVCAR-4 = settings: Homo sapiens, single dose 10 µM, '-' = no inhibition, read-out: % Growth Inhibition
Outline: as §1

OVCAR-5 = settings: Homo sapiens, single dose 10 µM, '-' = no inhibition, read-out: % Growth Inhibition
Outline: as §1

OVCAR-8 = settings: Homo sapiens, single dose 10 µM, '-' = no inhibition, read-out: % Growth Inhibition
Outline: as §1

PC-3 = settings: Homo sapiens, single dose 10 µM, '-' = no inhibition, read-out: % Growth Inhibition
Outline: as §1

RPMI-8226 = settings: Homo sapiens, single dose 10 µM, '-' = no inhibition, read-out: % Growth Inhibition
Outline: as §1

RXF 393 = settings: Homo sapiens, single dose 10 µM, '-' = no inhibition, read-out: % Growth Inhibition
Outline: as §1

SF-539 = settings: Homo sapiens, single dose 10 µM, '-' = no inhibition, read-out: % Growth Inhibition
Outline: as §1

SK-MEL-28 = settings: Homo sapiens, single dose 10 µM, '-' = no inhibition, read-out: % Growth Inhibition
Outline: as §1

SK-MEL-2 = settings: Homo sapiens, single dose 10 µM, '-' = no inhibition, read-out: % Growth Inhibition
Outline: as §1

SK-MEL-5 = settings: Homo sapiens, single dose 10 µM, '-' = no inhibition, read-out: % Growth Inhibition
Outline: as §1

SNB-19 = settings: Homo sapiens, single dose 10 µM, '-' = no inhibition, read-out: % Growth Inhibition
Outline: as §1

SNB-75 = settings: Homo sapiens, single dose 10 µM, '-' = no inhibition, read-out: % Growth Inhibition
Outline: as §1

SR = settings: Homo sapiens, single dose 10 µM, '-' = no inhibition, read-out: % Growth Inhibition
Outline: as §1

T-47D = settings: Homo sapiens, T47D, single dose 10 µM, '-' = no inhibition, read-out: % Growth Inhibition
Outline: as §1

TK-10 = settings: Homo sapiens, single dose 10 µM, '-' = no inhibition, read-out: % Growth Inhibition
Outline: as §1

U251 = settings: Homo sapiens, U-251, single dose 10 µM, '-' = no inhibition, read-out: % Growth Inhibition
Outline: as §1

UACC-257 = settings: Homo sapiens, single dose 10 µM, '-' = no inhibition, read-out: % Growth Inhibition
Outline: as §1

UACC-62 = settings: Homo sapiens, single dose 10 µM, '-' = no inhibition, read-out: % Growth Inhibition
Outline: as §1

UO-31 = settings: Homo sapiens, single dose 10 µM, '-' = no inhibition, read-out: % Growth Inhibition
Outline: as §1

Which inhibition at 10 µM (786-0) does the source give for `CCSc1nc(-c2ccc(OC)cc2)cc(-c2cccc(OC)c2)n1` [Compound 17, 2-(Ethylthio)-6-(3-methoxyphenyl)-4-(4-methoxyphenyl)pyrimidine] here?
Its inhibition at 10 µM is less than 0%.

What about the inhibition at 10 µM (A498) of the same molecule?
Its inhibition at 10 µM is less than 0%.

And the inhibition at 10 µM (A549/ATCC)?
The inhibition at 10 µM was 0.61%.

And the inhibition at 10 µM (ACHN 1)?
Its inhibition at 10 µM is less than 0%.

What about the inhibition at 10 µM (BT-549) of the same molecule?
The inhibition at 10 µM was less than 0%.

And the inhibition at 10 µM (CCRF-CEM)?
The inhibition at 10 µM was 2.15%.

And the inhibition at 10 µM (COLO 205)?
Its inhibition at 10 µM is less than 0%.

And the inhibition at 10 µM (EKVX)?
The inhibition at 10 µM was 1.03%.

What about the inhibition at 10 µM (HCC-2998) of the same molecule?
The inhibition at 10 µM was less than 0%.

And the inhibition at 10 µM (HCT-15)?
Its inhibition at 10 µM is 2.62%.

And the inhibition at 10 µM (HL-60(TB))?
The inhibition at 10 µM was 18.6%.

And the inhibition at 10 µM (HOP-62)?
Its inhibition at 10 µM is less than 0%.

What about the inhibition at 10 µM (HT29) of the same molecule?
The inhibition at 10 µM was less than 0%.

And the inhibition at 10 µM (IGROV1)?
The inhibition at 10 µM was less than 0%.

What about the inhibition at 10 µM (K-562) of the same molecule?
Its inhibition at 10 µM is 9.37%.

And the inhibition at 10 µM (LOX IMVI)?
Its inhibition at 10 µM is 5.7%.

What about the inhibition at 10 µM (M14) of the same molecule?
The inhibition at 10 µM was less than 0%.

What about the inhibition at 10 µM (MALME-3M) of the same molecule?
The inhibition at 10 µM was less than 0%.

What about the inhibition at 10 µM (MCF7) of the same molecule?
Its inhibition at 10 µM is 11%.

And the inhibition at 10 µM (MDA-MB-468)?
The inhibition at 10 µM was less than 0%.

And the inhibition at 10 µM (MDA-MB231/ATCC)?
The inhibition at 10 µM was 6.41%.

What about the inhibition at 10 µM (NCI-H23) of the same molecule?
The inhibition at 10 µM was less than 0%.

And the inhibition at 10 µM (NCI-H322M)?
The inhibition at 10 µM was less than 0%.

And the inhibition at 10 µM (NCI-H460)?
Its inhibition at 10 µM is less than 0%.

What about the inhibition at 10 µM (NCI-H522) of the same molecule?
The inhibition at 10 µM was 5.39%.

What about the inhibition at 10 µM (NCI/ADR-RES) of the same molecule?
The inhibition at 10 µM was less than 0%.

And the inhibition at 10 µM (OVCAR-4)?
The inhibition at 10 µM was 3.36%.

What about the inhibition at 10 µM (OVCAR-5) of the same molecule?
The inhibition at 10 µM was less than 0%.

What about the inhibition at 10 µM (OVCAR-8) of the same molecule?
The inhibition at 10 µM was less than 0%.

What about the inhibition at 10 µM (PC-3) of the same molecule?
Its inhibition at 10 µM is less than 0%.

What about the inhibition at 10 µM (RPMI-8226) of the same molecule?
Its inhibition at 10 µM is 3.83%.

What about the inhibition at 10 µM (RXF 393) of the same molecule?
The inhibition at 10 µM was less than 0%.

What about the inhibition at 10 µM (SF-539) of the same molecule?
Its inhibition at 10 µM is less than 0%.

And the inhibition at 10 µM (SK-MEL-28)?
The inhibition at 10 µM was less than 0%.

What about the inhibition at 10 µM (SK-MEL-2) of the same molecule?
Its inhibition at 10 µM is 5.15%.

What about the inhibition at 10 µM (SK-MEL-5) of the same molecule?
The inhibition at 10 µM was 6.31%.

What about the inhibition at 10 µM (SNB-19) of the same molecule?
The inhibition at 10 µM was less than 0%.

What about the inhibition at 10 µM (SNB-75) of the same molecule?
The inhibition at 10 µM was less than 0%.

What about the inhibition at 10 µM (SR) of the same molecule?
The inhibition at 10 µM was 18.4%.

And the inhibition at 10 µM (T-47D)?
The inhibition at 10 µM was 10.2%.

What about the inhibition at 10 µM (TK-10) of the same molecule?
The inhibition at 10 µM was less than 0%.

And the inhibition at 10 µM (U251)?
The inhibition at 10 µM was less than 0%.

And the inhibition at 10 µM (UACC-257)?
The inhibition at 10 µM was less than 0%.

And the inhibition at 10 µM (UACC-62)?
The inhibition at 10 µM was less than 0%.

And the inhibition at 10 µM (UO-31)?
Its inhibition at 10 µM is 13.7%.
